Measured values published in patent US6277867A, “Pesticide compounds, compositions and process for the preparation thereof” (priority 1995, dated 2001).

Tests used:
[1] = tested on: cotton bollworm (Helicoverpa armigera); assay: Synergistic activity on cotton bollworm following topical application; conditions: in vivo
Experimental: Investigation of Synergistic Activity on Cotton Bollworm (Helicoverpa armigera) Following Topical Application
Treatment was performed similarity as described in Example 1. but L2 stadium grubs of cotton bollworms (Helicoverpa armigera) were treated as test animals. From the 24 hour dose--mortality data the LD50 (ng/grub) values were determined using probit analysis. None of the synergists acted at the applied 1000 ng/grub dose. Synergist ratio was calculated as the quotient of the LD50 values of carbofuran administered alone, and with the synergist. The experiments were performed in 2-4 replica.

[2] = tested on: house fly (Musca domestica); conditions: in vivo, topical_or_ocular, 1440 min
Experimental: Investigation of Synergistic Activity on House Fly (Musca domestica) Following Topical Application
In two parallel experiments 10 female. 2-4 day old house flies were treated on the vental side of their thorax with 0.2 μl of the test solution, with the help of Hamilton MicroLab P microdispenser. Beside fixed synergist dose of 1000 ng/fly the animals were treated with carbofuran at a dose of 20 ng/fly. For solvent cellosolve was used. Selection and counting of the flies were performed under the action of CO2. After treatment the flies were kept in plastic cups covered with tulle. Mortality after 24 hours was expressed in %.

[3] = tested on: house fly (Musca domestica); assay: Effect of the active ingredient:synergist ratio on the synergistic activity (flies)
Experimental: Effect of the Active Ingredient:Synergist Ratio on the Synergistic Activity
Treatment was performed as described in Example 1. using Hamilton MicroLab P microdispenser. In two parallel experiments 10 female -3 day old flies were treated on the ventral side of their thorax with 0.2 μl test solution. Beside 1000-400-200-80 ng/fly fixed doses of the synergist they were treated with constant 20 ng/fly CARBOFURAN®. Selection and counting of the flies were performed under the action of CO2. After treatment the flies were kept in plastic cups covered with tulle. After 24 hours mortality % was recorded. Depending on the results the experiments were performed in 2-4 replica.

flies = assay: Comparative investigations with known reference synergists on flies treated with carbofuran; format: in vivo; conditions: flies treated with carbofuran and 1000 ng of the synergist
Text: These SR50 ratios were compared to those of the new compounds prepared by us.

[4] = tested on: resistant house fly, INSEL strain; assay: Synergistic activity on resistant house fly, INSEL strain; format: in vivo, Musca domestica; conditions: active ingredient alone
Experimental: Investigation of Synergistic Activity on Resistant House Fly (Musca domestica) Populations
Investigation was carried out as described in biological Example 1. LD50 values and synergist ratios were determined as given in Example 2.

[5] = carbofuran 20 ng/fly + synergist 80 ng/fly
[6] = carbofuran 20 ng/fly + synergist 200 ng/fly
[7] = carbofuran 20 ng/fly + synergist 400 ng/fly
[8] = house fly, in vivo, topical_or_ocular

| Compound | Synergist ratio [1] | mortality % [2] [%] | Synergist ratio SR50 (flies) | further results |
| --- | --- | --- | --- | --- |
| CC#CCOC(CC)c1cccc2ccccc12 (centres unmarked) [Compound 454, 1-[1-(2-butynyloxy)-propyl]-naphthalene] | > 5 | 75 | – | 24 hour mortality (%) [3, 5]: 40%; 24 hour mortality (%) [3, 6]: 45%; 24 hour mortality (%) [3, 7]: 60%; 24 hour mortality (%) [3, 8]: 75% |
| CC#CCNC(=O)c1cccc2ccccc12 [Compound 542, N-(2-Butynyl)-1-naphthamide] | > 5 | 42 | – | – |
| C#CCCOc1cccc2ccccc12 [1-naphthyl 3-butynyl ether] | – | – | 7.95 | – |
| CC#CCO[C@@H](C)c1ccc2ccccc2c1 [Compound 456, S-(-)-2-[1-(2-butynyloxy)-ethyl]-naphthalene] | > 5 | 47 | – | – |
| C#CC(C)OCc1cccc2ccccc12 (centres unmarked) [Compound 389] | > 5 | 27 | – | – |
| C#CCOCc1cccc2ccccc12 [1-naphthylmethyl 2-propynyl ether] | – | – | 5.28 | – |
| CC#CCON=C(C)c1ccc(OC)c(OC)c1 [Compound 572, 3,4-Dimethoxy-acetophenonoxym-(2-butynyl)-ether] | > 5 | 55 | – | – |
| CC#CCN1C(=O)c2ccccc2C1=O [Compound 537, N-(But-2-ynyl)-phthalimide] | > 5 | – | – | – |
| CC#CCCOc1ccc([N+](=O)[O-])cc1 [Compound 540, 1-(3-pentynyloxy)-4-nitro-benzene] | > 5 | 60 | – | – |
| C#CCOCc1c(Cl)cccc1Cl [(2,6-dichlorophenyl)methyl 2-propynyl ether] | – | – | 20.92 | – |
| CC#CCOCc1ccc(OC)c(OC)c1 [Compound 493, (2-Butynyloxy-methyl)-3,4-dimethoxy-benzene] | > 5 | 100 | 32.84 | 24 hour mortality (%) [3, 5]: 75%; 24 hour mortality (%) [3, 6]: 88%; 24 hour mortality (%) [3, 7]: 94%; 24 hour mortality (%) [3, 8]: 100% |
| C#CCO[C@H](C)c1ccc2ccccc2c1 [Compound 475, R-(+)-2-1[1-(2-propynyloxy)-ethyl]-naphthalene] | > 5 | 47 | – | – |
| C#CCO[C@@H](C)c1ccc2ccccc2c1 [Compound 474, S-(-)-2-[1-(2-propynyloxy)-ethyl]-naphthalene] | > 5 | 50 | – | – |
| C#CCON=C(C)c1cccc2ccccc12 [1-acetonaphthon-oxim (2-propynyl) ether] | – | – | 7.79 | – |
| CC#CCOC(c1ccccc1)c1ccc2c(c1)OCO2 (centres unmarked) [Compound 555, 5-[(But-2-ynyloxy)-phenyl-methyl]-1,3-benzodioxole] | > 5 | 90 | – | – |
| CC#CCOC(c1cccc2ccccc12)C(C)C (centres unmarked) [Compound 472, 1-[2-methyl-1-(2-butynyloxy)-propyl]-naphthalene] | > 5 | 68 | – | – |
| CC#CCOCC1COc2ccccc2O1 (centres unmarked) [Compound 510, 2-[(2-Butynyloxy)-methyl]-1,4-benzodioxane] | > 5 | 75 | 18.32 | – |
| CC#CCO[C@@H](C)c1cccc2ccccc12 [Compound 330, S-(-)-1-[1-(2-butynyloxy)-ethyl]-naphthalene] | > 5 | 62 | – | – |
| C#CCOc1cccc2ccccc12 [1-naphthyl 2-propargyl ether] | – | – | 6.52 | – |
| C#CCOCc1ccc(OC)c(OC)c1 [(2-propynyloxy-methyl)-3,4-dimethoxy-benzene] | – | – | 6.58 | – |
| C#CCOC(=O)c1cccc2ccccc12 [2-propynyll-naphthyl-carboxylate] | – | – | 4.11 | – |
| CC#CCNC(=O)c1ccc2c(c1)OCO2 [Compound 523, N-(2-butynyl) 3,4-methylene-dioxy-benzamide] | > 5 | 17 | – | – |
| CC#CCOC1CCc2ccccc21 (centres unmarked) [Compound 479, 1-(2-Butynyloxy)-indane] | > 5 | 58 | – | – |

| Compound | Synergist ratio [1] | mortality % [2] [%] | Synergist ratio SR50 (flies) | further results |
| --- | --- | --- | --- | --- |
| CC#CCO[C@H](C)c1cccc2ccccc12 [Compound 331, R-(+)-1-[1-(2-butynyloxy)-ethyl]-naphthalene] | > 5 | 72 | – | – |
| CC#CCOc1ccc2ccccc2c1 [2-naphthyl 2-butynyl ether] | – | – | 7.72 | – |
| C#CCNC(=O)c1cccc2ccccc12 [Compound 541, N-(2-Propynyl)-1-naphthamide] | > 5 | 46 | – | – |
| CC#CCOC(c1ccc2c(c1)OCO2)C1CCCCC1 (centres unmarked) [Compound 554, 5-[(But-2-ynyloxy)-cyclohexyl-methyl]-1,3-benzodioxole] | > 5 | 58 | – | – |
| CC#CCOC(=O)c1ccc2c(c1)OCO2 [Compound 502, 2-Butynyl 1,3-benzodioxol-5-carboxylate] | > 5 | 47 | 6.28 | – |
| CC#CCCOc1ccc2ccccc2c1 [2-naphthyl 3-pentynyl ether] | – | – | 9.97 | – |
| C=CCC1=C(C)[C@@H](OC(=O)[C@@H]2[C@@H](C=C(C)C)C2(C)C)CC1=O [ESBIOL, reference compound] | – | – | – | LD50 [4]: 10653 ng/fly |
| CC#CCOCC1Cc2ccccc2O1 (centres unmarked) [Compound 539, 2-(2-butynyloxy-methyl)-2,3-dihydro-benzofuran] | > 5 | 48 | – | – |
| 5-[(2-propynyl)-methyl]-1,3-benzodioxole | – | – | 10.60 | – |
| CC#CCOC(C)c1ccc2ccccc2c1 (centres unmarked) [Compound 293, 2-[1-(2-butynyloxy)-ethyl]-naphthalene] | > 5 | 45 | – | – |
| CC#CCOC(C)c1cccc2ccccc12 (centres unmarked) [Compound 292, 1-[1-(2-butynyloxy)-ethyl]-naphthalene] | > 5 | 72 | – | – |
| C#CCOC(=O)c1ccc2c(c1)OCO2 [Compound 501, 2-Propynyl 1,3-benzodioxol-5-carboxylate] | > 5 | 53 | – | 24 hour mortality (%) [3, 5]: 60%; 24 hour mortality (%) [3, 6]: 75%; 24 hour mortality (%) [3, 7]: 80%; 24 hour mortality (%) [3, 8]: 80% |
| C#CCOc1cccc2c1OC(C)(C)C2 [2,3-dihydro-2,2-dimethyl-7-(2-propynyloxy)benzofurane] | – | – | 1.8 | – |
| CC#CCO[C@H](C)c1ccc2ccccc2c1 [Compound 455, R-(+)-2-[1-(2-butynyloxy)-ethyl]-naphthalene] | > 5 | 70 | – | 24 hour mortality (%) [3, 5]: 25%; 24 hour mortality (%) [3, 6]: 48%; 24 hour mortality (%) [3, 7]: 63%; 24 hour mortality (%) [3, 8]: 77% |
| C#CCCOc1ccc([N+](=O)[O-])cc1 [Compound 547, 1-(3-butynyloxy)-4-nitro-benzene] | – | 47 | – | – |
| CC#CCON=C(C)c1cccc2ccccc12 [Compound 571, 1-Aceto-naphthon-oxim-(2-butynyl)-ether] | > 5 | 53 | 10.02 | – |
| CC#CCOC1CCCc2ccccc21 (centres unmarked) [Compound 498, 1-(2-Butynyloxy)-1,2,3,4-tetrahydro-naphthalene] | > 5 | 70 | – | – |
| CC#CCCOc1cccc2c1OC(C)(C)C2 [Compound 418, 2,3-dihydro-2,2-dimethyl-7-(3-pentynyloxy)-benzofuran] | > 5 | 63 | 20.5 | – |
| C#CCCOc1cccc2c1OC(C)(C)C2 [Compound 377, 2,3-dihydro, 2,2-dimethyl-7-(3-butynyloxy)-benzofuran] | > 5 | 57 | – | – |
| C#CCOC(C)c1ccc2ccccc2c1 (centres unmarked) [Compound 256, 2-[1-(2-propynyloxy)-ethyl]-naphthalene] | > 5 | 32 | – | – |
| CC#CCNC(=O)c1ccc2ccccc2c1 [Compound 535, N-(2-Butynyl)-2-naphthamide] | > 5 | 27 | – | – |
| C#CCOCC1COc2ccccc2O1 (centres unmarked) [2-[(2-propynyloxy)methyl]-1,4-benzodioxane] | – | – | 5.58 | – |
| C#CCN(C)C(C)c1ccc2ccccc2c1 (stereo not drawn) [Compound 251, N-α-dimethyl-N-2-propynyl-β-naphthyl-methylamine] | > 5 | 37 | – | – |
